# Measurements: paper PMC5104480 (PLoS ONE, 2016)
# How the values were obtained:
# UGT1A6 = target: T1, UGT1A6 (Homo sapiens, UniProt P19224); assay: Glucuronidation by human expressed UGT1A6 (screening and kinetics); type: in vitro ADME
# T1 construct: purchased BD Biosciences (Woburn, MA, USA)
# T1 sequence (P19224 27-532): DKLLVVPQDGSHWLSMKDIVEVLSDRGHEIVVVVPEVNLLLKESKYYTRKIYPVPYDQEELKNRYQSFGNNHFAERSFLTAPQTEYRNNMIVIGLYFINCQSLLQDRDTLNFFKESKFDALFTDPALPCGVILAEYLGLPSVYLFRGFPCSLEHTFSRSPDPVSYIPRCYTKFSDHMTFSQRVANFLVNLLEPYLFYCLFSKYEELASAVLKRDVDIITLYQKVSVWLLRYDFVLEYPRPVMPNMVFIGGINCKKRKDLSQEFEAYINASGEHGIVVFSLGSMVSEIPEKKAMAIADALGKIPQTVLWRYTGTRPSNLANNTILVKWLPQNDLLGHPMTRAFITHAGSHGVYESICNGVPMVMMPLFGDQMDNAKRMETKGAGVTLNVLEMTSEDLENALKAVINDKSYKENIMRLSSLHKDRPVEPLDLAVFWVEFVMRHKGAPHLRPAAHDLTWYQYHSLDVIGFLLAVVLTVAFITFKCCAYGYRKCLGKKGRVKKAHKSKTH
# Experimental: All metabolism studies in vitro were approved by the First Hospital Affiliated to Shihezi University Research Ethics Committee. The glucuronidation assay was performed as described in previous publications. […] The incubation volumes were 120 μL, and the total organic solvent content was 1%. […] The reactions were initiated by adding UDPGA (3.5 mM) at 37°C and then allowed to stand for 30 min in a water bath. These reactions were terminated by adding 60 μL ice-cold acetonitrile containing the IS (25 nM tilianin). […] All experiments were performed in triplicate. The enzyme kinetic parameters were obtained by fitting kinetic models to the experimental data using GraphPad Prism version 5.04 for Windows (GraphPad Software Inc., San Diego, CA, USA). The best model was selected based on visual inspection of the Eadie-Hofstee plots, the calculated r^2 values, and corrected Akaike’s information criterion. The HLMs or human expressed UGT enzymes were employed for kinetic studies at concentrations ranging from 0.0021 mg/mL to 0.0053 mg/mL. The rates of the glucuronidation were fitted to the following equations: V = Cmetabolite/t×Cprotein Where V (nmol/mg/min) is the rates of the glucuronidation, Cmetabolite (μM) and Cprotein (mg/mL) respectively are the concentration of the metabolite and the reaction protein, t (min) is the reaction time. Model selection was based on visual inspection of Eadie—Hofstee plots and it was reported in our previous study. In brief, if the Eadie—Hofstee plot was linear, formation rates (V) of glucuronides at different substrate concentrations (C) were fitted to the standard Eq (1): V = Vmax×C/Km+C (1) where Km is the Michaelis-Menten constant and Vmax is the maximum rate of glucuronidation. The intrinsic clearance (CLint) was derived by Vmax/Km. […] The intrinsic clearance (CLint) was derived by Vmax1/Km1. The method of this study as described in detail previously. […] After incubation, all samples were pretreated as described above and analyzed by UHPLC—MS/MS.
# [1] = tested on: human liver microsomes (HLMs); assay: Glucuronidation kinetics of diosmetin and chrysoeriol by HLMs; type: in vitro ADME; conditions: for Kinetic profile of glucuronide formation: Eadie—Hofstee plots; for Km / Vmax: formation of the named glucuronide from diosmetin or chrysoeriol
# Experimental: (§1) All metabolism studies in vitro were approved by the First Hospital Affiliated to Shihezi University Research Ethics Committee. The glucuronidation assay was performed as described in previous publications. […] The incubation volumes were 120 μL, and the total organic solvent content was 1%. […] The reactions were initiated by adding UDPGA (3.5 mM) at 37°C and then allowed to stand for 30 min in a water bath. These reactions were terminated by adding 60 μL ice-cold acetonitrile containing the IS (25 nM tilianin). […] All experiments were performed in triplicate. The enzyme kinetic parameters were obtained by fitting kinetic models to the experimental data using GraphPad Prism version 5.04 for Windows (GraphPad Software Inc., San Diego, CA, USA). The best model was selected based on visual inspection of the Eadie-Hofstee plots, the calculated r^2 values, and corrected Akaike’s information criterion. The HLMs or human expressed UGT enzymes were employed for kinetic studies at concentrations ranging from 0.0021 mg/mL to 0.0053 mg/mL. The rates of the glucuronidation were fitted to the following equations: V = Cmetabolite/t×Cprotein Where V (nmol/mg/min) is the rates of the glucuronidation, Cmetabolite (μM) and Cprotein (mg/mL) respectively are the concentration of the metabolite and the reaction protein, t (min) is the reaction time. Model selection was based on visual inspection of Eadie—Hofstee plots and it was reported in our previous study. In brief, if the Eadie—Hofstee plot was linear, formation rates (V) of glucuronides at different substrate concentrations (C) were fitted to the standard Eq (1): V = Vmax×C/Km+C (1) where Km is the Michaelis-Menten constant and Vmax is the maximum rate of glucuronidation. The intrinsic clearance (CLint) was derived by Vmax/Km. […] The intrinsic clearance (CLint) was derived by Vmax1/Km1.
# [2] = as above; type: in vitro ADME, human; conditions: human, liver microsomes, pH 7.4, Vmax/Km, formation of the named glucuronide
# Experimental: as §1
# BCRP = target: T2, BCRP (Homo sapiens, UniProt Q9UNQ0); assay: Effect of BCRP inhibitor Ko143 on glucuronide excretion in HeLa—UGT1A9 cells; type: cell-based
# T2 construct: endogenous in cells; host or cells: HeLa cells stably transfected with UGT1A9 (from Dr. Ming Hu, University of Houston)
# T2 sequence (Q9UNQ0 1-655): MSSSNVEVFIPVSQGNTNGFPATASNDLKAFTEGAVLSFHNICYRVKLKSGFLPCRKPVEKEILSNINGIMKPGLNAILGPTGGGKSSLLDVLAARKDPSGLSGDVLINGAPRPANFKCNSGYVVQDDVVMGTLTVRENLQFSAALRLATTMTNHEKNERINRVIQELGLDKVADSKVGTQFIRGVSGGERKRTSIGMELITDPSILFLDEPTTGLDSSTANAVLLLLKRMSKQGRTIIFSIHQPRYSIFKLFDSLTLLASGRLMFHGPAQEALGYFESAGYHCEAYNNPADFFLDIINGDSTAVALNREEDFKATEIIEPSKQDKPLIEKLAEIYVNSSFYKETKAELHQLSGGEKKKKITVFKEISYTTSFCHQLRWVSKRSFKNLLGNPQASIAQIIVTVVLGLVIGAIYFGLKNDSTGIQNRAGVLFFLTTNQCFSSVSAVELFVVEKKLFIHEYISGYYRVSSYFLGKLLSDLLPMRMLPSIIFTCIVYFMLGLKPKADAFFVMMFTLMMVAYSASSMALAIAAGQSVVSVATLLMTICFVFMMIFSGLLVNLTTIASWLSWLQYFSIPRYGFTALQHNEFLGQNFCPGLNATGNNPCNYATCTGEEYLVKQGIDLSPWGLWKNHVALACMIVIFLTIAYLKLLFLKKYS
# Experimental: (§2) The excretion rates, glucuronides intracellular, Glucuronides excretion, the clearance of efflux transporter (CL) and the fraction of the metabolized dose (fmet) experiments were calculated as described in detail previously.
# HeLa—UGT1A9 cells = assay: Glucuronide excretion at different substrate concentrations in HeLa—UGT1A9 cells; type: cell-based; conditions: for substrate concentration at which the excretion rate reached a peak: diosmetin or chrysoeriol 1.25-40 μM
# Experimental: as §2
# UGT1A9 = target: T3, UGT1A9 (Homo sapiens, UniProt O60656); assay: Glucuronidation by human expressed UGT1A9 (screening and kinetics); type: in vitro ADME; conditions: for Kinetic profile of glucuronide formation: Eadie—Hofstee plots; for microsomal CLint: human, expressed (recombinant) human UGT1A9, pH 7.4, Vmax/Km; for Vmax: substrate diosmetin (Dio-3′-G) or chrysoeriol (Chr-7-G)
# T3 construct: purchased BD Biosciences (Woburn, MA, USA)
# T3 sequence (O60656 26-530): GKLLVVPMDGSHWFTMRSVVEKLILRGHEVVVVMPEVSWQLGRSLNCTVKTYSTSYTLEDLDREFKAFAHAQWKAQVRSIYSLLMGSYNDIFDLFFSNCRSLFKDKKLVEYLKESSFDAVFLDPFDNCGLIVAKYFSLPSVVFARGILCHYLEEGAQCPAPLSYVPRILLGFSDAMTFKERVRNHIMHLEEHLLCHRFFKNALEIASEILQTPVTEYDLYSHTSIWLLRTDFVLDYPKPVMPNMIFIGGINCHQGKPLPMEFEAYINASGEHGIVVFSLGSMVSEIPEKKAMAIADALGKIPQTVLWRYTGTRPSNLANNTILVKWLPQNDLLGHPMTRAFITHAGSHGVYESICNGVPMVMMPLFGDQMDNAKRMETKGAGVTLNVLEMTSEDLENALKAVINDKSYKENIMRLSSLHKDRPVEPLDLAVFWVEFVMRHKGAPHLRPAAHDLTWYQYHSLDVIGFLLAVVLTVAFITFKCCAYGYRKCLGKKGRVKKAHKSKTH
# Experimental: All metabolism studies in vitro were approved by the First Hospital Affiliated to Shihezi University Research Ethics Committee. The glucuronidation assay was performed as described in previous publications. […] The incubation volumes were 120 μL, and the total organic solvent content was 1%. […] The reactions were initiated by adding UDPGA (3.5 mM) at 37°C and then allowed to stand for 30 min in a water bath. These reactions were terminated by adding 60 μL ice-cold acetonitrile containing the IS (25 nM tilianin). […] All experiments were performed in triplicate. The enzyme kinetic parameters were obtained by fitting kinetic models to the experimental data using GraphPad Prism version 5.04 for Windows (GraphPad Software Inc., San Diego, CA, USA). The best model was selected based on visual inspection of the Eadie-Hofstee plots, the calculated r^2 values, and corrected Akaike’s information criterion. The HLMs or human expressed UGT enzymes were employed for kinetic studies at concentrations ranging from 0.0021 mg/mL to 0.0053 mg/mL. The rates of the glucuronidation were fitted to the following equations: V = Cmetabolite/t×Cprotein Where V (nmol/mg/min) is the rates of the glucuronidation, Cmetabolite (μM) and Cprotein (mg/mL) respectively are the concentration of the metabolite and the reaction protein, t (min) is the reaction time. Model selection was based on visual inspection of Eadie—Hofstee plots and it was reported in our previous study. In brief, if the Eadie—Hofstee plot was linear, formation rates (V) of glucuronides at different substrate concentrations (C) were fitted to the standard Eq (1): V = Vmax×C/Km+C (1) where Km is the Michaelis-Menten constant and Vmax is the maximum rate of glucuronidation. The intrinsic clearance (CLint) was derived by Vmax/Km. […] The intrinsic clearance (CLint) was derived by Vmax1/Km1. The method of this study as described in detail previously. […] The incubation conditions were as follows: protein concentration: 0.0053 mg/mL; temperature of water: 37°C; shaker speed: 50 rpm; reaction time: 30 min. After incubation, all samples were pretreated as described above and analyzed by UHPLC—MS/MS.
# UGT1A1 = target: T4, UGT1A1 (Homo sapiens, UniProt P22309); assay: Glucuronidation kinetics by human expressed UGT1A1; type: in vitro ADME
# T4 construct: purchased BD Biosciences (Woburn, MA, USA)
# T4 sequence (P22309 26-533): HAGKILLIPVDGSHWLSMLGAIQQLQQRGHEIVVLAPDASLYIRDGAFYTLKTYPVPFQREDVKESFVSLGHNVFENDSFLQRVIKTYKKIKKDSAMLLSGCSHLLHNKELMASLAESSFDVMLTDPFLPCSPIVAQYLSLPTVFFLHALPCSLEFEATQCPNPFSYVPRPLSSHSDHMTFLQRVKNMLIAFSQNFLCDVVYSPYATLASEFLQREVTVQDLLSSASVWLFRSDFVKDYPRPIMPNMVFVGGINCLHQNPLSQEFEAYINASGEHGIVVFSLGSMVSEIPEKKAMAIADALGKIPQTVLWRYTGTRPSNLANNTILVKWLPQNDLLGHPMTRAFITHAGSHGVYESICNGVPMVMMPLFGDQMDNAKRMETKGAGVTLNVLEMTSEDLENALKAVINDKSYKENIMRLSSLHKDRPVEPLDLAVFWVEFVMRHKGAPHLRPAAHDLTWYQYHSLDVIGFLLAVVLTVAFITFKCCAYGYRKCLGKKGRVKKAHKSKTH
# Experimental: as §1
# [3] = 5 μM Ko143, 2.5 μM diosmetin or chrysoeriol
# [4] = 10 μM Ko143, 2.5 μM diosmetin or chrysoeriol
SMILES,Kinetic profile of glucuronide formation (UGT1A6; Eadie—Hofstee plots),"microsomal CLint (UGT1A6; human, expressed (recombinant) human UGT1A6, pH 7.4, Vmax/Km)",Vmax (UGT1A6; substrate diosmetin),Kinetic profile of glucuronide formation [1],Km [1],Vmax [1],microsomal CLint [2],increase of total intracellular amount of glucuronide compared with the control (BCRP; [3]),increase of total intracellular amount of glucuronide compared with the control (BCRP; [4]),substrate concentration at which the excretion rate reached a peak (HeLa—UGT1A9 cells),Kinetic profile of glucuronide formation (UGT1A9),microsomal CLint (UGT1A9),Vmax (UGT1A9),substrate concentration at which fmet reached a peak (HeLa—UGT1A9 cells; chrysoeriol 1.25-40 μM),Kinetic profile of glucuronide formation (UGT1A1; Eadie—Hofstee plots),"microsomal CLint (UGT1A1; human, expressed (recombinant) human UGT1A1, pH 7.4, Vmax/Km)",Vmax (UGT1A1; substrate chrysoeriol)
"COc1ccc(-c2cc(=O)c3c(O)cc(O[C@@H]4O[C@H](C(=O)O)[C@@H](O)[C@H](O)[C@H]4O)cc3o2)cc1O [Dio-7-G, Diosmetin-7-O-glucuronide]",substrate inhibition kinetic characteristics,300 µL/min/mg,0.92 ± 0.06 nmol/mg/min,substrate inhibition profiles,4.66 ± 0.72 µM,0.61 ± 0.05 nmol/mg/min,130 µL/min/mg,1.1 fold,1.5 fold,10 µM,,,,,,,
"COc1ccc(-c2cc(=O)c3c(O)cc(O)cc3o2)cc1O[C@@H]1O[C@H](C(=O)O)[C@@H](O)[C@H](O)[C@H]1O [Dio-3′-G, diosmetin-3′-O-glucuronide]",,,,classic Michaelis—Menten kinetics,0.19 ± 0.02 µM,1.16 ± 0.03 nmol/mg/min,6250 µL/min/mg,1.3 fold,1.8 fold,2.5 µM,classic Michaelis-Menten kinetic characteristics,9520 µL/min/mg,4.27 ± 0.13 nmol/mg/min,,,,
"COc1cc(-c2cc(=O)c3c(O)cc(O)cc3o2)ccc1O[C@@H]1O[C@H](C(=O)O)[C@@H](O)[C@H](O)[C@H]1O [Chr-4′-G, chrysoeriol-4′-O-glucuronide]",,,,substrate inhibition profiles,0.15 ± 0.03 µM,0.20 ± 0.01 nmol/mg/min,1270 µL/min/mg,1.3 fold,1.8 fold,2.5 µM,,,,2.5 µM,substrate inhibition kinetic characteristics,2260 µL/min/mg,0.63 ± 0.06 nmol/mg/min
"COc1cc(-c2cc(=O)c3c(O)cc(O[C@@H]4O[C@H](C(=O)O)[C@@H](O)[C@H](O)[C@H]4O)cc3o2)ccc1O [Chr-7-G, chrysoeriol-7-O-glucuronide]",,,,classic Michaelis—Menten kinetics,3.83 ± 0.55 µM,0.15 ± 0.01 nmol/mg/min,40 µL/min/mg,1.3 fold,1.7 fold,2.5 µM,classic Michaelis-Menten kinetic characteristics,480 µL/min/mg,0.12 ± 0.01 nmol/mg/min,,,,
